The text below walks through data of patent US20060241026A1, “Novel cyclic peptides and use thereof as anti-microbial agents” (priority 2002, published 2006).

≈ marks a conversion by molar mass, not a printed value. Entries after “also recorded” stand apart in the source; their conditions may differ. Where two headings read alike, the source gives them in different places. Positions of bridges follow the written chain, without caps; N, C: chain ends. Residues, ends and D or L forms follow the SMILES beside them. Bounds are passed on as bounds.

Test [1] deals with Gram+ and Gram− bacteria and a filamentous fungus. Kind of test: Antibiotic tests on Gram+ and Gram- bacteria and on a filamentous fungus, summary in words. The following applies: compared with the native molecule or the minimal loop. Format: cell-based. The protocol: (§1) The activity of the synthetic peptides was tested with respect to the Gram+ bacteria Mycrocossus luteus, Staphylococcus aureus, Staphylococcus epidermidis and Bacillus megaterium. The activities were determined according to the protocol described by HANCOCK et al. (http://www.interchg.ubc.ca/bobh/methods.htm)
(§2) The MIC was determined for each peptide by inhibition of growth in liquid medium. Doubling dilution of peptide was realized in the wells of a Microtest plate in a volume of 10 μl. The bacteria were grown in MUELLER HINTON BROTH (MHB, Difco) liquid medium. During the exponential growth phase, a solution with an optical density of 0.001 at 600 nm was produced, and 100 μl of this suspension were added to each well. The incubation lasted 24 h at 30° C., and the optical densities of each well were then measured at 600 nm. The value of the MIC corresponds to the first well for which the optical density had not changed.
(§3) The dishes were incubated for 24 h at 30° C. The value of the MBC corresponds to the lowest concentration of the peptide for which no colony developed.
(§4) The anti-fungal activity was determined by calculating the MIC in a growth inhibition assay for the shrimp parasite fungus Fusarium oxysporum, in liquid phase, according to the protocol described by FELHBAM et al. (J. Biol. Chem., 1994, 269:33159-63). Doubling dilutions of each peptide were realized in the wells of a Microtest plate in a volume of 10 μl. 90 μl of spores resuspended in potato dextrose broth medium (DIFCO) at a final concentration of 10^4 spores/ml were added to each well. The growth inhibition was measured after incubation for 24 h at 25° C. in the dark, by observation under an optical microscope and measurement of the increase in OD at 600 nm. The value of the MIC corresponds to the first well for which the optical density had not increased.
Using the 3-D structure of the native molecule as a basis, said molecule was fractionated into 17 elements (table I). All these fragments were synthesized and their activities were assayed using antibiotic tests on Gram+ and Gram− bacteria and on a filamentous fungus. The minimum inhibitory concentration (MIC) and minimum […] concentration (MBC) of each peptide were thus determined and were compared with those of the native molecule.

The subject of test [2] is Bacillus megaterium. The class given is cell-based. As to the method: as §1, §2, §3
The subject of test [3] is Staphylococcus aureus. Format: cell-based. The protocol: as §1, §2, §3
Test [4] concerns Micrococcus luteus. The class given is cell-based. As to the method: as §1, §2, §3
Test [5] has as its system Staphylococcus epidermidis. Format: cell-based. The protocol: as §1, §2, §3
In test [6] the test system is Fusarium oxysporum. Format: cell-based. The protocol:
as §4

For test [7], the system named is Gram+ and Gram− bacteria and a filamentous fungus. Kind of test: Antibiotic tests on Gram+ and Gram- bacteria and on a filamentous fungus, summary in words. The class given is cell-based.
For test [8], the system named is Gram+ bacteria. The following applies: cited from earlier work.

For `CC(C)C[C@@H]1NC(=O)[C@H](CCCNC(=N)N)NC(=O)[C@H](Cc2c[nH]cn2)NC(=O)[C@H](Cc2c[nH]c3ccccc23)NC(=O)CNC(=O)CNC(=O)[C@@H](N)CSSC[C@@H](C(=O)O)NC(=O)[C@H](CCCNC(=N)N)NC1=O` [SEQ ID NO:1, C^(S)GGWHRLRC^(S)] (H-CGGWHRLRC-OH; disulfide 1-9; N-terminus and C-terminus assumed), in test [1], the “anti-microbial activity (in words)” value was “has anti-bacterial activity”. Moreover, in test [2] (Table II), the “Bacillus megaterium MBC” value amounted to 50 µM and the “Bacillus megaterium MIC” value stood at 26 µM. Moreover, in test [3] (Table II), the “Staphylococcus aureus MBC” value was found to be 75 µM and the “Staphylococcus aureus MIC” value was determined as 25 µM. Further, the “MIC on M leuteus” value in test [4] (Table 1, growth inhibition in liquid medium, 24 h at 30° C.) turned out to be 33 µM (≈ 35.8 µg/mL). Also, in test [4] (Table II), the “Micrococcus luteus MBC” value is 50 µM and the “Micrococcus luteus MIC” value came to 24 µM. Moreover, in test [5] (Table II), the “Staphylococcus epidermidis MBC” value is 50 µM and the “Staphylococcus epidermidis MIC” value was determined as 17 µM. Further, the “Fusarium oxysporum MIC” value in test [6] (Table II, 24 h at 25° C.) turned out to be 28 µM.
For `N=C(N)NCCC[C@@H]1NC(=O)[C@H](CCCCN)NC(=O)[C@H](CCCNC(=N)N)NC(=O)[C@H](CCCCN)NC(=O)[C@H](Cc2c[nH]c3ccccc23)NC(=O)CNC(=O)CNC(=O)[C@@H](N)CSSC[C@@H](C(=O)O)NC1=O` [SEQ ID NO:2, C^(S)GGWKRKRC^(S)] (H-CGGWKRKRC-OH; disulfide 1-9; N-terminus and C-terminus assumed), in test [1], the “anti-microbial activity (in words)” value is listed as “increases the activity; also recorded: antibacterial potency greater than that of the cyclic peptide of sequence SEQ ID NO:1”. For the same molecule, in test [2] (Bacillus), the “Bacillus megaterium MBC” value was above 75 µM and the “Bacillus megaterium MIC” value amounted to 24 µM. In test [3], the “Staphylococcus aureus MBC” value is 33 µM and the “Staphylococcus aureus MIC” value is 15 µM. For the same molecule, in test [4], the “Micrococcus luteus MBC” value is above 75 µM and the “Micrococcus luteus MIC” value worked out at 14 µM. Moreover, the “MIC on M leuteus” value in test [4] (24 h) came out at 13 µM (≈ 14.2 µg/mL). Further, in test [5], the “Staphylococcus epidermidis MBC” value was above 75 µM and the “Staphylococcus epidermidis MIC” value was determined as 20 µM. The “Fusarium oxysporum MIC” value in test [6] (24 h) is 43 µM.
For the molecule `CC(C)C[C@@H]1NC(=O)[C@H](CCCNC(=N)N)NC(=O)[C@H](Cc2c[nH]cn2)NC(=O)[C@H](Cc2c[nH]c3ccccc23)NC(=O)CNC(=O)CNC(=O)[C@@H](NC(=O)[C@H](Cc2ccc(O)cc2)NC(=O)CNC(=O)CNC(=O)[C@@H](N)CO)CSSC[C@@H](C(=O)N[C@H](C(=O)N[C@@H](CO)C(=O)N[C@@H](Cc2ccc(O)cc2)C(=O)N[C@@H](CCCNC(=N)N)C(=O)N[C@@H](CO)C(=O)NCC(=O)O)[C@@H](C)O)NC(=O)[C@H](CCCNC(=N)N)NC1=O` [SEQ ID NO:6, SGGYC^(S)GGWHRLRC^(S)TSYRSG] (H-SGGYCGGWHRLRCTSYRSG-OH; disulfide 5-13; N-terminus and C-terminus assumed), in test [2] (Bacillus), the “Bacillus megaterium MBC” value is above 75 µM and the “Bacillus megaterium MIC” value amounted to 25 µM. In test [3], the “Staphylococcus aureus MBC” value was determined as 75 µM and the “Staphylococcus aureus MIC” value was 19 µM. Besides, in test [4], the “Micrococcus luteus MBC” value was above 75 µM and the “Micrococcus luteus MIC” value came out at 29 µM. The “MIC on M leuteus” value in test [4] (24 h) stood at 32 µM (≈ 67.2 µg/mL). In test [5], the “Staphylococcus epidermidis MBC” value is above 75 µM and the “Staphylococcus epidermidis MIC” value amounted to 24 µM. In addition, the “Fusarium oxysporum MIC” value in test [6] (24 h) worked out at 14 µM.
With `CC(C)C[C@@H]1NC(=O)[C@H](CCCNC(=N)N)NC(=O)[C@H](Cc2c[nH]cn2)NC(=O)[C@H](Cc2c[nH]c3ccccc23)NC(=O)CNC(=O)CNC(=O)[C@@H]2CSSC[C@H](NC(=O)[C@H](CCCNC(=N)N)NC1=O)C(=O)N[C@@H]([C@@H](C)O)C(=O)N[C@@H](CO)C(=O)N[C@@H](Cc1ccc(O)cc1)C(=O)N[C@@H](CCCNC(=N)N)C(=O)N[C@H](C(=O)NCC(=O)O)CSSC[C@H](N)C(=O)NCC(=O)NCC(=O)N[C@@H](Cc1ccc(O)cc1)C(=O)N2` [SEQ ID NO:7, C^(S2)GGYC^(S1)GGWHRLRC^(S1)TSYRC^(S2)G] (H-CGGYCGGWHRLRCTSYRCG-OH; disulfide 1-18, 5-13; N-terminus and C-terminus assumed), the “anti-microbial activity (in words)” value in test [1] is reported as “more active than the minimal structure”. Moreover, the “ability to lyse cells” value in test [7] is reported as “brings about the ability to lyse cells”.
Regarding “GFGCPNNYQCHRHCKSIPGRCGGYCGGWHRLRCTCYRCG (listed as Mytilus galloprovincialis) [SEQ ID NO:3, Mytilus galloprovincialis defensin, small cationic protein of 4 kDa comprising 39 amino acids; native molecule, reference compound]”, in test [2] (Table II), the “Bacillus megaterium MBC” value came to 1.5 µM and the “Bacillus megaterium MIC” value came out at 0.8 µM. Further, in test [3] (Table II), the “Staphylococcus aureus MBC” value turned out to be 1.2 µM and the “Staphylococcus aureus MIC” value was determined as 0.6 µM. Besides, the “MBC on M leuteus” value in test [4] (Table 1, plating on MHA, 24 h at 30° C.) is 2 µM. For the same molecule, in test [4] (Table II), the “Micrococcus luteus MBC” value was determined as 1.5 µM and the “Micrococcus luteus MIC” value is 0.6 µM. In addition, in test [5] (Table II), the “Staphylococcus epidermidis MBC” value came to 6.2 µM and the “Staphylococcus epidermidis MIC” value was 3.1 µM. Further, the “Fusarium oxysporum MIC” value in test [6] (Table II, 24 h at 25° C.) is 5 µM. The “anti-bacterial and anti-fungal activity of MGD1 (in words)” value in test [8] is “has anti-bacterial activity against Gram+ bacteria and anti-fungal activity”.
